Reference: patent publication US20060069132A1, “Azolecarboxamide herbicides” (priority 2004, published 2006)

Assays:
cocklebur = assay: Test B pre-/postemergence herbicide test; assay type: in vivo, Xanthium strumarium; details: for Cocklebur plant response rating (0 to 100 scale) / Plant response rating, Cocklebur: preemergence; for Cocklebur plant response rating: postemergence, scale 0 (no effect) to 100 (complete control)
In short: (§1)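 Seeds were planted and treated preemergence with compounds formulated in a non-phytotoxic solvent mixture containing surfactant, while plants at the 1- to 4-leaf stage (2 to 18 cm) received postemergence sprays. Flooded paddy plants were grown to the 2-leaf stage. After 13 to 15 days in a greenhouse, injury was visually rated 0–100 against untreated controls.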

wheat = assay: Test B postemergence herbicide test; assay type: in vivo, Triticum aestivum; design: key to Wheat plant response rating: 0 = no effect, 100 = complete control; details: postemergence, visual rating, scale 0 (no effect) to 100 (complete control)
In short: (§2)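 Scale 0–100: zero equals no visible effect, 100 complete control, judged by eye relative to controls. Timing: 13 to 15 days in greenhouse post-treatment. Growth stage at spraying: two leaves (paddy) or one to four leaves, 2–18 cm (postemergence).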

[1] = test system: small flower umbrella sedge; assay: Test B flooded paddy test; assay type: in vivo, Cyperus difformis; details: 1000 g ai/ha, visual rating, scale 0 to 100 (0 no effect, 100 complete control), 13 to 15 days
In short: (§3)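 Postemergence plants were sprayed with formulated test chemicals at 2 to 18 cm height (1- to 4-leaf stage); paddy species were grown to the 2-leaf stage. After 13 to 15 days in a greenhouse, injury was rated visually against untreated controls on a 0–100 scale (0 = no effect, 100 = complete control).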

pigweed = assay: Test B pre-/postemergence herbicide test; assay type: in vivo, Amaranthus retroflexus; details: for Pigweed plant response rating (0 to 100 scale) / Plant response rating, Pigweed: preemergence; for Pigweed plant response rating: postemergence, scale 0 (no effect) to 100 (complete control)
In short: (§4)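 Formulation: non-phytotoxic solvent mix with surfactant. Timing: preemergence on seed and postemergence on 2–18 cm plants, applied concurrently. Readout after 13–15 d greenhouse: visual 0–100 control rating against controls.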

barnyardgrass [2] = assay: Test B flooded paddy test; assay type: in vivo, Echinochloa crus-galli; details: 1000 g ai/ha, visual rating, scale 0 to 100 (0 no effect, 100 complete control), 13 to 15 days
In short: as §3

giant foxtail = assay: Test B pre-/postemergence herbicide test; assay type: in vivo, Setaria faberi; details: for Foxtail, Giant plant response rating: postemergence, scale 0 (no effect) to 100 (complete control)
In short: as §4

Surinam grass = assay: Test B pre-/postemergence herbicide test; assay type: in vivo, Urochloa decumbens; details: for Surinam Grass plant response rating: postemergence, scale 0 (no effect) to 100 (complete control)
In short: as §4

wild oat = assay: Test B postemergence herbicide test; assay type: in vivo, Avena fatua; details: postemergence, visual rating, scale 0 (no effect) to 100 (complete control)
In short: as §2

ducksalad = assay: Test B flooded paddy test; assay type: in vivo, Heteranthera limosa; details: 1000 g ai/ha, visual rating, scale 0 to 100 (0 no effect, 100 complete control), 13 to 15 days
In short: as §3

blackgrass = assay: Test B postemergence herbicide test; assay type: in vivo, Alopecurus myosuroides; details: postemergence, visual rating, scale 0 (no effect) to 100 (complete control)
In short: as §3

large crabgrass = assay: Test B pre-/postemergence herbicide test; assay type: in vivo, Digitaria sanguinalis; details: for Crabgrass, Large plant response rating (0 to 100 scale) / Plant response rating, Crabgrass, Large: preemergence; for Crabgrass, Large plant response rating: postemergence, scale 0 (no effect) to 100 (complete control)
In short: as §4

corn = assay: Test B pre-/postemergence herbicide test; assay type: in vivo, Zea mays; details: for Corn plant response rating (0 to 100 scale) / Plant response rating, Corn: preemergence; for Corn plant response rating: postemergence, scale 0 (no effect) to 100 (complete control)
In short: as §4

morningglory = assay: Test B pre-/postemergence herbicide test; assay type: in vivo, Ipomoea coccinea; details: for Morningglory plant response rating: postemergence, scale 0 (no effect) to 100 (complete control)
In short: as §1

rice [3] = assay: Test B flooded paddy test; assay type: in vivo, Oryza sativa; details: 1000 g ai/ha, visual rating, scale 0 to 100 (0 no effect, 100 complete control), 13 to 15 days
In short: as §2

velvetleaf = assay: Test B pre-/postemergence herbicide test; assay type: in vivo, Abutilon theophrasti; details: for Velvetleaf plant response rating (0 to 100 scale) / Plant response rating, Velvetleaf: preemergence; for Velvetleaf plant response rating: postemergence, scale 0 (no effect) to 100 (complete control)
In short: as §4

lambsquarters = assay: Test B pre-/postemergence herbicide test; assay type: in vivo, Chenopodium album; details: for Lambsquarters plant response rating (0 to 100 scale) / Plant response rating, Lambsquarters: preemergence; for Lambsquarters plant response rating: postemergence, scale 0 (no effect) to 100 (complete control)
In short: as §4

rice [4] = assay: Test B pre-/postemergence herbicide test; assay type: in vivo, Oryza sativa; details: preemergence; for Rice plant response rating (0 to 100 scale): 125 g ai/ha; for Plant response rating, Rice: 500 g ai/ha
In short: as §4

barnyardgrass [5] = assay: Test B pre-/postemergence herbicide test; assay type: in vivo, Echinochloa crus-galli; details: for Barnyardgrass plant response rating (0 to 100 scale) / Plant response rating, Barnyardgrass: preemergence; for Barnyardgrass plant response rating: postemergence, scale 0 (no effect) to 100 (complete control)
In short: as §1

[6] = 125 g ai/ha, 0 = no effect, 100 = complete control
[7] = 500 g ai/ha, visual rating 0-100, 0 no effect, 100 complete control
[8] = 500 g ai/ha, visual rating 0-100, 0 no effect, 100 complete control, preemergence
[9] = 125 g ai/ha, 0 = no effect, 100 = complete control, preemergence
[10] = 0 = no effect, 100 = complete control
[11] = 500 g ai/ha, visual rating, 0 = no effect, 100 = complete control
[12] = 500 g ai/ha, visual rating, 0 = no effect, 100 = complete control, preemergence

## CC(=NO)c1cccc(NC(=O)c2nn(C(C)(C)C)cc2C(F)(F)F)c1 [Compound 171]
cocklebur; [6]
  Cocklebur plant response rating (0 to 100 scale): 0
cocklebur; [7]
  Plant response rating, Cocklebur: 0
cocklebur; 125 g ai/ha, visual rating
  Cocklebur plant response rating: 0
cocklebur; 500 g ai/ha, visual rating
  Cocklebur plant response rating: 0
wheat; 125 g ai/ha
  Wheat plant response rating: 0
wheat; 500 g ai/ha
  Wheat plant response rating: 0
[1]
  Sedge, Umbrella plant response rating: 0
pigweed; [6]
  Pigweed plant response rating (0 to 100 scale): 0
pigweed; [7]
  Plant response rating, Pigweed: 0
pigweed; 125 g ai/ha, visual rating
  Pigweed plant response rating: 10
pigweed; 500 g ai/ha, visual rating
  Pigweed plant response rating: 20
Barnyardgrass [2]
  Barnyardgrass plant response rating: 0
Giant foxtail; [8]
  Plant response rating, Foxtail, Giant: 0
Giant foxtail; 125 g ai/ha, visual rating
  Foxtail, Giant plant response rating: 10
Giant foxtail; 500 g ai/ha, visual rating
  Foxtail, Giant plant response rating: 20
Surinam grass; [8]
  Plant response rating, Surinam Grass: 0
Surinam grass; 125 g ai/ha, visual rating
  Surinam Grass plant response rating: 10
Surinam grass; 500 g ai/ha, visual rating
  Surinam Grass plant response rating: 10
Wild oat; 125 g ai/ha
  Oat, Wild plant response rating: 0
Wild oat; 500 g ai/ha
  Oat, Wild plant response rating: 0
ducksalad
  Ducksalad plant response rating: 0
blackgrass; 125 g ai/ha
  Blackgrass plant response rating: 0
blackgrass; 500 g ai/ha
  Blackgrass plant response rating: 0
Large crabgrass; [6]
  Crabgrass, Large plant response rating (0 to 100 scale): 0
Large crabgrass; [7]
  Plant response rating, Crabgrass, Large: 30
Large crabgrass; 125 g ai/ha, visual rating
  Crabgrass, Large plant response rating: 0
Large crabgrass; 500 g ai/ha, visual rating
  Crabgrass, Large plant response rating: 10
corn; [6]
  Corn plant response rating (0 to 100 scale): 0
corn; [7]
  Plant response rating, Corn: 0
corn; 125 g ai/ha, visual rating
  Corn plant response rating: 0
corn; 500 g ai/ha, visual rating
  Corn plant response rating: 10
morningglory; [9]
  Morningglory plant response rating (0 to 100 scale): 0
morningglory; 125 g ai/ha, visual rating
  Morningglory plant response rating: 0
morningglory; 500 g ai/ha, visual rating
  Morningglory plant response rating: 0
Rice [3]
  Rice plant response rating: 0
velvetleaf; [6]
  Velvetleaf plant response rating (0 to 100 scale): 0
velvetleaf; [7]
  Plant response rating, Velvetleaf: 20
velvetleaf; 125 g ai/ha, visual rating
  Velvetleaf plant response rating: 0
velvetleaf; 500 g ai/ha, visual rating
  Velvetleaf plant response rating: 0
lambsquarters; [6]
  Lambsquarters plant response rating (0 to 100 scale): 0
lambsquarters; [7]
  Plant response rating, Lambsquarters: 0
lambsquarters; 125 g ai/ha, visual rating
  Lambsquarters plant response rating: 10
lambsquarters; 500 g ai/ha, visual rating
  Lambsquarters plant response rating: 20
Rice [4]; [10]
  Rice plant response rating (0 to 100 scale): 0
Rice [4]; visual rating 0-100, 0 no effect, 100 complete control
  Plant response rating, Rice: 0
Barnyardgrass [5]; [6]
  Barnyardgrass plant response rating (0 to 100 scale): 0
Barnyardgrass [5]; [7]
  Plant response rating, Barnyardgrass: 0
Barnyardgrass [5]; 125 g ai/ha, visual rating
  Barnyardgrass plant response rating: 0
Barnyardgrass [5]; 500 g ai/ha, visual rating
  Barnyardgrass plant response rating: 10

## CCN(CC)C(=O)c1cccc(NC(=O)c2nn(C(C)(C)C)cc2Cl)c1 [Compound 218]
cocklebur; [6]
  Cocklebur plant response rating (0 to 100 scale): 0
cocklebur; [11]
  Plant response rating, Cocklebur: 0
cocklebur; 125 g ai/ha, visual rating
  Cocklebur plant response rating: 0
cocklebur; 500 g ai/ha, visual rating
  Cocklebur plant response rating: 0
wheat; 125 g ai/ha
  Wheat plant response rating: 0
wheat; 500 g ai/ha
  Wheat plant response rating: 0
[1]
  Sedge, Umbrella plant response rating: 20
pigweed; [6]
  Pigweed plant response rating (0 to 100 scale): 0
pigweed; [11]
  Plant response rating, Pigweed: 0
pigweed; 125 g ai/ha, visual rating
  Pigweed plant response rating: 0
pigweed; 500 g ai/ha, visual rating
  Pigweed plant response rating: 20
Barnyardgrass [2]
  Barnyardgrass plant response rating: 0
Giant foxtail; [9]
  Foxtail, Giant plant response rating (0 to 100 scale): 0
Giant foxtail; [12]
  Plant response rating, Foxtail, Giant: 0
Giant foxtail; 125 g ai/ha, visual rating
  Foxtail, Giant plant response rating: 0
Giant foxtail; 500 g ai/ha, visual rating
  Foxtail, Giant plant response rating: 0
Surinam grass; [9]
  Surinam Grass plant response rating (0 to 100 scale): 0
Surinam grass; [12]
  Plant response rating, Surinam Grass: 0
Surinam grass; 125 g ai/ha, visual rating
  Surinam Grass plant response rating: 0
Surinam grass; 500 g ai/ha, visual rating
  Surinam Grass plant response rating: 10
Wild oat; 125 g ai/ha
  Oat, Wild plant response rating: 0
Wild oat; 500 g ai/ha
  Oat, Wild plant response rating: 0
ducksalad
  Ducksalad plant response rating: 0
blackgrass; 125 g ai/ha
  Blackgrass plant response rating: 0
blackgrass; 500 g ai/ha
  Blackgrass plant response rating: 0
Large crabgrass; [6]
  Crabgrass, Large plant response rating (0 to 100 scale): 0
Large crabgrass; [11]
  Plant response rating, Crabgrass, Large: 20
Large crabgrass; 125 g ai/ha, visual rating
  Crabgrass, Large plant response rating: 0
Large crabgrass; 500 g ai/ha, visual rating
  Crabgrass, Large plant response rating: 10
corn; [6]
  Corn plant response rating (0 to 100 scale): 0
corn; [11]
  Plant response rating, Corn: 0
corn; 125 g ai/ha, visual rating
  Corn plant response rating: 0
corn; 500 g ai/ha, visual rating
  Corn plant response rating: 10
morningglory; [9]
  Morningglory plant response rating (0 to 100 scale): 0
morningglory; [12]
  Plant response rating, Morningglory: 0
morningglory; 125 g ai/ha, visual rating
  Morningglory plant response rating: 0
morningglory; 500 g ai/ha, visual rating
  Morningglory plant response rating: 10
Rice [3]
  Rice plant response rating: 0
velvetleaf; [6]
  Velvetleaf plant response rating (0 to 100 scale): 0
velvetleaf; [11]
  Plant response rating, Velvetleaf: 0
velvetleaf; 125 g ai/ha, visual rating
  Velvetleaf plant response rating: 0
velvetleaf; 500 g ai/ha, visual rating
  Velvetleaf plant response rating: 0
lambsquarters; [6]
  Lambsquarters plant response rating (0 to 100 scale): 0
lambsquarters; [11]
  Plant response rating, Lambsquarters: 0
lambsquarters; 125 g ai/ha, visual rating
  Lambsquarters plant response rating: 0
lambsquarters; 500 g ai/ha, visual rating
  Lambsquarters plant response rating: 10
Rice [4]; [10]
  Rice plant response rating (0 to 100 scale): 0
Rice [4]; visual rating, 0 = no effect, 100 = complete control
  Plant response rating, Rice: 0
Barnyardgrass [5]; [6]
  Barnyardgrass plant response rating (0 to 100 scale): 0
Barnyardgrass [5]; [11]
  Plant response rating, Barnyardgrass: 0
Barnyardgrass [5]; 125 g ai/ha, visual rating
  Barnyardgrass plant response rating: 0
Barnyardgrass [5]; 500 g ai/ha, visual rating
  Barnyardgrass plant response rating: 0
